According to US9611289B2, “Farnesoid X receptor modulators” (Intercept Pharmaceuticals, Inc., priority 2013, dated 2017):
≈ marks a conversion by molar mass, not a printed value. Where a name gives a salt, the structure may show the parent alone. Read-outs that look alike come from different tables or passages of the source.

Columns and labels:
CYP2D6 = CYP2D6 (Homo sapiens, UniProt P10635); test: biochemical
hERG potassium channel = hERG potassium channel (Homo sapiens, UniProt Q12809); test: PREDICTOR hERG Fluorescence Polarization assay; conditions: CHO-hERG membrane preparations
PXR [1] = target: T1, PXR (Homo sapiens, UniProt O75469); conditions: taken from Rizzo et al. 2010; cited from earlier work
T1 sequence (O75469 1-434): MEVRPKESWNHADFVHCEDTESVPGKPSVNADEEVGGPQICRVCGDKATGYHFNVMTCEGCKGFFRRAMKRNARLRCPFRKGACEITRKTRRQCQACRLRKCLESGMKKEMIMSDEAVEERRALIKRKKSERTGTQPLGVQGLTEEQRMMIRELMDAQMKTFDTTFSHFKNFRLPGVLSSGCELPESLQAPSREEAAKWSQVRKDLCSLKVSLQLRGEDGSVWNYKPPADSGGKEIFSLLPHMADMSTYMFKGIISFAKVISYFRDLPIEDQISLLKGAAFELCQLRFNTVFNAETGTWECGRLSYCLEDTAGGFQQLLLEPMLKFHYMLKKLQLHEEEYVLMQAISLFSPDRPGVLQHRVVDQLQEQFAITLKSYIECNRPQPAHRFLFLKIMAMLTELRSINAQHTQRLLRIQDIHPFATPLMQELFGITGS

CYP2C19 = CYP2C19 (Homo sapiens, UniProt P33261); test: biochemical
CYP3A4 [2] = target: T2, CYP3A4 (Homo sapiens, UniProt P08684); test: biochemical
CYP2C9 = CYP2C9 (Homo sapiens, UniProt P11712); test: biochemical
FXR target genes = test: Quantitative RT-PCR of FXR target genes in HepG2 cells; type: cell-based, human; conditions: 1 μM, overnight
CYP3A4 [3] = target: T2, CYP3A4; test: CYP450 inhibition, recombinant baculosomes, fluorescent signal; conditions: read-out: CYP3A4 (Green Substrate) IC50
CYP2E1 = CYP2E1 (Homo sapiens, UniProt P05181); test: biochemical
CAR [4] = target: T3, CAR (Homo sapiens, UniProt Q14994); conditions: read-out: CAR Activation EC50; *inverse agonist; taken from Rizzo et al. 2010; cited from earlier work
CYP1A2 = target: T4, CYP1A2 (Homo sapiens, UniProt P05177); test: biochemical
T4 sequence (P05177 1-516): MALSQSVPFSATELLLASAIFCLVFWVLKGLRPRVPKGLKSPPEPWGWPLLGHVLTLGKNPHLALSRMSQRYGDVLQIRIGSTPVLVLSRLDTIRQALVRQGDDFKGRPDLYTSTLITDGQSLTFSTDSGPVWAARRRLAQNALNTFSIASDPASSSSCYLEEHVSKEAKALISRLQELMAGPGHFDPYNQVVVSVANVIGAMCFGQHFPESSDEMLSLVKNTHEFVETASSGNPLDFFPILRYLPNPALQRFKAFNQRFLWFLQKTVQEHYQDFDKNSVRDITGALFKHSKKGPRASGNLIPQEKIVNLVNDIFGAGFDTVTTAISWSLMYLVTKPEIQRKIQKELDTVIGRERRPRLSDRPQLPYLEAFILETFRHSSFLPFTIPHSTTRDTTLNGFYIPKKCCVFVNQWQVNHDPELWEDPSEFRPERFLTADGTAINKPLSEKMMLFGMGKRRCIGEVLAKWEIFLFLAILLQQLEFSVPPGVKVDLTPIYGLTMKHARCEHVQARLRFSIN

[5] = 1-octanol-water partition coefficient (LogPA-); conditions: ionized species
PXR [6] = target: T1, PXR; test: AlphaScreen nuclear receptor activation; type: biochemical
RARα = RARα (Homo sapiens, UniProt P10276); test: AlphaScreen nuclear receptor activation; type: biochemical
RXR = test: AlphaScreen nuclear receptor activation; type: biochemical
HepG2 cells [7] = test: cells; conditions: Homo sapiens, HepG2, read-out: Membrane integrity EC50 (μM) (LDH measure)
PPARδ = PPARδ (Homo sapiens, UniProt Q03181); test: AlphaScreen nuclear receptor activation; type: biochemical
[8] = Critical micellar concentration; type: physicochemical; conditions: […] NaCl water solution
VDR = VDR (Homo sapiens, UniProt P11473); test: AlphaScreen nuclear receptor activation; type: biochemical
PPARα = PPARα (Homo sapiens, UniProt Q07869); test: AlphaScreen nuclear receptor activation; type: biochemical
Surface tension at CMC = type: physicochemical; conditions: […] NaCl water solution
TR = test: AlphaScreen nuclear receptor activation; type: biochemical
GR = GR (Homo sapiens, UniProt P04150); test: AlphaScreen nuclear receptor activation; type: biochemical
PPARγ = PPARγ (Homo sapiens, UniProt P37231); test: AlphaScreen nuclear receptor activation; type: biochemical
PR = PR (Homo sapiens, UniProt P06401); test: AlphaScreen nuclear receptor activation; type: biochemical
LXRβ = LXRβ (Homo sapiens, UniProt P55055); test: AlphaScreen nuclear receptor activation; type: biochemical
physchem = conditions: water
CAR [9] = target: T3, CAR; test: AlphaScreen nuclear receptor activation; type: biochemical
HepG2 cells [10] = test: Cell viability by intracellular ATP in HepG2 cells; type: cell-based, human; conditions: 4 h, different concentrations, FIG. 6
HepG2 cells [11] = system: HepG2 cells

**Q.** Which results are given for `CC[C@H]1[C@@H](O)[C@@H]2[C@H](CC[C@]3(C)[C@@H]([C@H](C)CCOS(=O)(=O)O)CC[C@@H]23)[C@@]2(C)CC[C@@H](O)C[C@@H]12` [Compound B, 6α-ethyl-3α,7α,23-trihydroxy-24-nor-5β-cholan-23-sulfate sodium salt]?
**A.** IC50 (CYP2D6): > 10 µM; block or inhibition of the hERG potassium channel (hERG potassium channel): does not block or inhibit; PXR Activation EC50 (μM) (PXR [1]): No activity; IC50 (CYP2C19): > 10 µM; IC50 (CYP3A4 [2]): > 10 µM; IC50 (CYP2C9): > 10 µM; CYP7α1 gene expression (FXR target genes): down; IC50 (CYP3A4 [3]): > 10 µM; IC50 (CYP2E1): > 10 µM; EC50 (CAR [4]): 44 µM; IC50 (CYP1A2): > 10 µM; LogPA−(d) 1-octanol-water partition coefficient [5]: 2.0

**Q.** What does the source list for `CC[C@H]1[C@@H](O)[C@@H]2[C@H](CC[C@]3(C)[C@@H]([C@H](C)CCC(=O)O)CC[C@@H]23)[C@@]2(C)CC[C@@H](O)C[C@@H]12` [Compound A, 6α-ethyl-3α,7α-dihydroxy-5β-cholan-24-oic acid]?
**A.** PXR Activation EC50 (μM) (PXR [6]): No activity; IC50 (CYP2D6): > 10 µM; block or inhibition of the hERG potassium channel (hERG potassium channel): does not block or inhibit; RARα Activation EC50 (μM) (RARα): No activity; RXR Activation EC50 (μM) (RXR): No activity; IC50 (CYP2C19): > 10 µM; EC50 (HepG2 cells [7]): 190 ± 30 µM; IC50 (CYP3A4 [2]): > 10 µM; PPARδ Activation EC50 (μM) (PPARδ): No activity; CMC(b) (mM) Critical Micellar Concentration [8]: 2.9 mM; IC50 (CYP2C9): > 10 µM; VDR Activation EC50 (μM) (VDR): No activity; APOCII gene expression (FXR target genes): up; BSEP gene expression (FXR target genes): up; CYP7α1 gene expression (FXR target genes): down; FGF-19 gene expression (FXR target genes): up; MRP2 gene expression (FXR target genes): up; OSTα gene expression (FXR target genes): up; OSTβ gene expression (FXR target genes): up; PEPCK gene expression (FXR target genes): up; PLTP gene expression (FXR target genes): up; PPARγ gene expression (FXR target genes): up; SHP gene expression (FXR target genes): up; SREBP-1C gene expression (FXR target genes): down; UGT2B4 gene expression (FXR target genes): up; PPARα Activation EC50 (μM) (PPARα): No activity; STCMC(c) (Dyne/cm) Surface Tension at CMC (Surface tension at CMC): 43.2-48.8 Dyne/cm; TR Activation EC50 (μM) (TR): No activity; IC50 (CYP3A4 [3]): > 10 µM; GR Activation EC50 (μM) (GR): No activity; PPARγ Activation EC50 (μM) (PPARγ): No activity; IC50 (CYP2E1): > 10 µM; PR Activation EC50 (μM) (PR): No activity; LXRβ Activation EC50 (μM) (LXRβ): No activity; IC50 (CYP1A2): > 10 µM; solubility (physchem): 9 µM (≈ 3.79 µg/mL); LogPA−(d) 1-octanol-water partition coefficient [5]: 2.5; CAR Activation EC50 (μM) (CAR [9]): No activity; ER Activation EC50 (μM) (ER): No activity

**Q.** What does the source list for `CC[C@H]1[C@@H](O)[C@@H]2[C@H]([C@@H](O)C[C@]3(C)[C@@H]([C@H](C)CCC(=O)O)CC[C@@H]23)[C@@]2(C)CC[C@@H](O)C[C@@H]12` [Compound 100, 3α,7α,11β-trihydroxy-6α-ethyl-5β-cholan-24-oic acid]?
**A.** PXR Activation EC50 (μM) (PXR [6]): No activity; IC50 (CYP2D6): > 10 µM; block or inhibition of the hERG potassium channel (hERG potassium channel): does not block or inhibit; RARα Activation EC50 (μM) (RARα): No activity; IC50 (CYP2C19): > 10 µM; viable cells (ATP measurement) (HepG2 cells [10]): 100%; IC50 (CYP3A4 [2]): > 10 µM; IC50 (CYP2C9): > 10 µM; IC50 (CYP3A4 [3]): > 10 µM; living cells (HepG2 cells [11]; HepG2 cells, LDH measure): (100% living cells); cytotoxic effect on HepG2 cells (HepG2 cells [11]; LDH release): does not induce any cytotoxic effect; IC50 (CYP2E1): > 10 µM; solubility (Water solubility): 143 to 150 µM (≈ 62.4 to 65.5 µg/mL); IC50 (CYP1A2): > 10 µM; LogPA−(d) 1-octanol-water partition coefficient [5]: 0.8
